This passage reports IC50 results from patent publication US6046217A, “2,3,5-trisubstituted pyridines as inhibitors of cyclooxygenase-2” (Merck Frosst Canada & Co., priority 1998, dated 2000).

Experiment [1] concerns the target T1, COX-1 (Homo sapiens, UniProt P23219). In words: Human whole blood assay, COX-1 (clotting-induced TxB2 production). Further details: platelets in whole blood contain a large amount of the COX-1 enzyme; endogenous in cells; host or cells: platelets in fresh human whole blood, clotting. The format is cell-based. An excerpt:
(§1) As well, platelets in whole blood contain a large amount of the COX-1 enzyme. Immediately following blood clotting, platelets are activated through a thrombin-mediated mechanism. This reaction results in the production of thromboxane B2 (TxB2) via activation of COX-1. Thus, the effect of test compounds on TxB2 levels following blood clotting can be examined and used as an index for COX-1 activity. Therefore, the degree of selectivity by the test compound can be determined by measuring the levels of PGE2 after LPS induction (COX-2) and TxB2 following blood clotting (COX-1) in the same assay.
Fresh blood is collected into vacutainers containing no anticoagulants. […] The tubes are vortexed and incubated at 37° C. for 1 hour to allow blood to clot. At the end of incubation, serum is obtained by centrifugation (12,000×g for 5 min.). A 100 μL aliquot of serum is mixed with 400 μL of methanol for protein precipitation.

Experiment [2] addresses T1, COX-1. As to the kind of experiment: Assay of COX-1 activity from U937 cell microsomes (PGE2). The arrangement: Assay of COX-1 Activity from U937 Cell Microsomes; endogenous in cells; host or cells: U937 cells, 100,000 x g microsomal pellet. The settings on record: 15 min preincubation. The format is biochemical. As to the method: U 937 cells are pelleted by centrifugation at 500×g for 5 min and washed once with phosphate-buffered saline and repelleted. Cells are resuspended in homogenization buffer consisting of 0.1 M Tris-HCl, pH 7.4, 10 mM EDTA, […] leupeptin, 2 μg/ml soybean trypsin inhibitor, 2 μg/ml aprotinin and 1 mM phenyl methyl sulfonyl fluoride. The cell suspension is sonicated 4 times for 10 sec and is centrifuged at 10,000×g for 10 min at 4° C. The supernatant is centrifuged at 100,000×g for 1 hr at 4° C. The 100,000×g microsomal pellet is resuspended in 0.1 M Tris-HCl, pH 7.4, 10 mM EDTA to approximately 7 mg protein/ml and stored at -80° C.
Microsomal preparations are thawed immediately prior to use, subjected to a brief sonication, and then diluted to a protein concentration of 125 μg/ml in 0.1 M Tris-HCl buffer, pH 7.4 containing 10 mM EDTA, 0.5 mM phenol, 1 mM reduced glutathione and 1 μM hematin. Assays are performed in duplicate in a final volume of 250 μl. Initially, 5 μl of DMSO vehicle or drug in DMSO are added to 20 μl of 0.1 M Tris-HCl buffer, pH 7.4 containing 10 mM EDTA in wells of a 96-deepwell polypropylene titre plate. 200 μl of the microsomal preparation are then added and pre-incubated for 15 min at room temperature before addition of 25 μl of […] arachidonic acid in […] Tris-HCl and 10 mM EDTA, pH 7.4. Samples are incubated for 40 min at room temperature and the reaction is stopped by the addition of 25 μl of 1 N HCl. Samples are neutralized with 25 μl of 1 N NaOH prior to quantitation of PGE2 content by radioimmunoassay (Dupont-NEN or Amersham assay kits). Cyclooxygenase activity is defined as the difference between PGE2 levels in samples incubated in the presence of arachidonic acid and ethanol vehicle.
In the assay, inhibition is determined by measuring the amount of prostaglandin E2 (PGE2) synthesized in the presence of arachidonic acid, cyclooxygenase-1 or cyclooxygenase-2 and a putative inhibitor.

The target of experiment [3] is T2, COX-2 (Homo sapiens, UniProt P35354).
T2 sequence (P35354 18-604): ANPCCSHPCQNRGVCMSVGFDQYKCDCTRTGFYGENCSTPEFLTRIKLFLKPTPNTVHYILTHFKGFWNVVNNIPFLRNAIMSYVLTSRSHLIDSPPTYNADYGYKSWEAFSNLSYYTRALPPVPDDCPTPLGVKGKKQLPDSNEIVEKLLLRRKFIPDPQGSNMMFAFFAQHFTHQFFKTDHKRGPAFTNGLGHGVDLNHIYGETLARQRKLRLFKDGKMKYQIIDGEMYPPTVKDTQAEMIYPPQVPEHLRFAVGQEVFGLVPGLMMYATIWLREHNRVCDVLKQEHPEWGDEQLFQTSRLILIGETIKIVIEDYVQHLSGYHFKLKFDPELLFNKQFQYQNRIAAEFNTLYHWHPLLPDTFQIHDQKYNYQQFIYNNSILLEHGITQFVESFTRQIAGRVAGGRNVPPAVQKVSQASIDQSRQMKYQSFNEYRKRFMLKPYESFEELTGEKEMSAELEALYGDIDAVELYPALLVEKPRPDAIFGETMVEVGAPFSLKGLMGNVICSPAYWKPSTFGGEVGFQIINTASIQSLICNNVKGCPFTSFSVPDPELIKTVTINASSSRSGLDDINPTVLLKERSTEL
In words: cell-based. The settings on record: CHO[hCOX-2] cells, 10 μM AA, 15 min preincubation; read-out: COX-2 (IC50 mM) CHO.
Experimental: For cyclooxygenase assays, CHO[hCOX-1] cells from suspension cultures and CHO[hCOX-2] cells prepared by trypsinization of adherent cultures are harvested by centrifugation (300×g, 10 min) and washed once in HBSS containing 15 mM HEPES, pH 7.4, and resuspended in HBSS, 15 mM HEPES, pH 7.4, at a cell concentration of 1.5×10^6 cells/ml. Drugs to be tested are dissolved in DMSO to 66.7-fold the highest test drug concentration. […] Cells (0.3×10^6 cells in 200 μl) are preincubated with 3 μl of the test drug or DMSO vehicle for 15 min at 37° C. Working solutions of peroxide-free AA (5.5 μM and 110 μM AA for the CHO [hCOX-1] and CHO [COX-2] assays, respectively) are prepared by a 10-fold dilution of a concentrated AA solution in ethanol into HBSS containing 15 mM HEPES, pH 7.4. Cells are then challenged in the presence or absence of drug with the AA/HBSS solution to yield a final concentration of 0.5 μM AA in the CHO[hCOX-1] assay and a final concentration of 10 μM AA in the CHO[hCOX-2] assay. The reaction is terminated by the addition of 10 μl 1 N HCl followed by neutralization with 20 μl of 0.5 N NaOH. The samples are centrifuged at 300 ×g at 4° C. for 10 min, and an aliquot of the clarified supernatant is appropriately diluted for the determination of PGE2 levels using an enzyme-linked immunoassay for PGE2 (Correlate PGE2 enzyme immunoassay kit, Assay Designs, Inc.). Cyclooxygenase activity in the absence of test compounds is determined as the difference in PGE2 levels of cells challenged with arachidonic acid versus the PGE2 levels in cells mock-challenged with ethanol vehicle. Inhibition of PGE2 synthesis by test compounds is calculated as a percentage of the activity in the presence of drug versus the activity in the positive control samples.

Experiment [4] addresses T2, COX-2. As to the kind of experiment: cell-based. The note with it: human whole blood, LPS-induced PGE2, 24 h; read-out: COX-2 (IC50 mM) HWB.
Text: as §1
Fresh blood is collected in heparinized tubes by venipuncture from both male and female volunteers. The subjects have no apparent inflammatory conditions and have not taken any NSAIDs for at least 7 days prior to blood collection. Plasma is immediately obtained from a 2mL blood aliquot to use as blank (basal levels of PGE2). The remaining blood is incubated with LPS (100 μg/ml final concentration, Sigma Chem, #L-2630 from E. coli; diluted in 0.1% BSA (Phosphate buffered saline) for 5 minutes at room temperature. Five hundred […] aliquots of blood are incubated with either 2 μL of vehicle (DMSO) or 2 μL of a test compound at final concentrations varying from 10 nM to 30 μM for 24 hours at 37° C. At the end of the incubation, the blood is centrifuged at 12,000×g for 5 minutes to obtain plasma. A 100 μL aliquot of plasma is mixed with 400 μL of methanol for protein precipitation. The supernatant is obtained and is assayed for PGE2 using a radioimmunoassay kit (Amersham, RPA#530) after conversion of PGE2 to its methyl oximate derivative according to the manufacturer's procedure. […]

The mark [5] stands for this setting: human whole blood, clotting-induced TxB2, 1 h, read-out: COX-1 (IC50 mM) HWB.
[6] abbreviates: U-937 cell microsomes, read-out: COX-1 (IC50 mM) U-937.

Like-named read-outs stand apart in the source and are kept apart here.

Usually IC50 stands for the concentration needed to halve the response being measured.

T1 sequence (P23219 24-599): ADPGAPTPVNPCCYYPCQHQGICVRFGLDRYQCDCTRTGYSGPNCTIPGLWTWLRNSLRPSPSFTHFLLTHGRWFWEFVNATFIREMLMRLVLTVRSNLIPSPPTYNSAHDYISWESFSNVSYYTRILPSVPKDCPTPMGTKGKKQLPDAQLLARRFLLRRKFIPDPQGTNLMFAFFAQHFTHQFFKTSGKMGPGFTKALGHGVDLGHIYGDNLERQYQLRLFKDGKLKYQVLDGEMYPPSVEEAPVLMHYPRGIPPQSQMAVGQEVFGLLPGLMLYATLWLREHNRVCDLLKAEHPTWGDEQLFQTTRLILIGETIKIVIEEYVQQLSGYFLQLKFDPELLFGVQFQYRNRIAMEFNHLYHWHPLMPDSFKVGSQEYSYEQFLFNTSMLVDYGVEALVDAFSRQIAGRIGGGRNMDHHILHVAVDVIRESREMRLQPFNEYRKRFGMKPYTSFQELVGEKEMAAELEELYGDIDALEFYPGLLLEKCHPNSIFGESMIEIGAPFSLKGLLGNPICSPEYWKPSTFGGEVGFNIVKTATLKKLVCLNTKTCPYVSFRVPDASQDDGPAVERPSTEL

For the compound `C[C@]1(O)CCC[C@H]1Oc1ncc(C(F)(F)F)cc1-c1ccc(S(C)(=O)=O)cc1` (single isomer, unassigned) [Example 32, (-)-2-(cis-2-Hydroxy-2-methylcyclopentyloxy)-3-(4-methylsulfonyl)phenyl-5-trifluoromethylpyridine], the IC50 at COX-1 [1] (setting [5]) is more than 0.1 mM; on COX-1 [2] (setting [6]), more than 0.01 mM.
Regarding `CS(=O)(=O)c1ccc(-c2cc(C(F)(F)F)cnc2OCC2(O)CCCC2)cc1` [Example 13, 2-(1-Hydroxycyclopentyl)methoxy-3-(4-methylsulfonyl)phenyl-5-trifluoromethylpyridine], the concentration for half-maximal inhibition (IC50) stood at 0.096 mM on COX-1 [1] (setting [5]) and 0.01 mM on COX-1 [2] (setting [6]).
With `C[C@@H](Oc1ncc(C(F)(F)F)cc1-c1ccc(S(C)(=O)=O)cc1)C(C)(C)O` [Example 17, 2-((2R)-3-Hydroxy-3-methyl-2-butyloxy)-3-(4-methylsulfonyl)phenyl-5-trifluoromethylpyridine], the 50% inhibitory concentration (IC50) on COX-1 [1] (setting [5]) is more than 0.1 mM; on COX-1 [2] (setting [6]), more than 0.01 mM; on COX-2 [3] it was 0.38 µM; on COX-2 [4], less than 0.0004 mM.
On the same counts, the results for `CCC(O)(CC)[C@@H](C)Oc1ncc(C(F)(F)F)cc1-c1ccc(S(C)(=O)=O)cc1` [Example 21, 2-((2R)-3-Ethyl-3-hydroxy-2-pentyloxy)-3-(4-methylsulfonyl)phenyl-5-trifluoromethylpyridine] are more than 0.1 mM, more than 0.01 mM, 0.2 µM and 0.0047 mM.
Take `C[C@@H](O)[C@@H](C)Oc1ncc(C(F)(F)F)cc1-c1ccc(S(C)(=O)=O)cc1` [Example 23, 2-((2R,3R)-3-Hydroxy-2-butyloxy)-3-(4-methylsulfonyl)phenyl-5-trifluoromethylpyridine]: the 50% inhibitory concentration (IC50) against COX-1 [1] is more than 0.1 mM; at COX-1 [2] (COX-1 (IC50 mM) U-937, U-937 cell microsomes), more than 0.01 mM; at COX-2 [3], 0.05 µM; at COX-2 [4], 0.0005 mM.
With `C[C@H](CO)Oc1ncc(C(F)(F)F)cc1-c1ccc(S(C)(=O)=O)cc1` [Example 28, 2-((2R)-1-Hydroxy-2-propyloxy)-3-(4-methylsulfonyl)phenyl-5-trifluoromethylpyridine], the IC50 on COX-1 [1] (setting [5]) was more than 0.1 mM; at COX-1 [2] (setting [6]) it was more than 0.01 mM; on COX-2 [3], 0.04 µM; on COX-2 [4], 0.0112 mM.
Consider `CC(C)(O)CSc1ncc(C(F)(F)F)cc1-c1ccc(S(C)(=O)=O)cc1` [Example 43, 2-(2-Hydroxy-2-methyl-1-thiopropyloxy)-3-(4-methylsulfonyl)phenyl-5-trifluoromethylpyridine], for which the IC50 on COX-1 [1] (setting [5]) was 0.039 mM; on COX-1 [2] (setting [6]) it was 0.003 to 0.01 mM.
`CC(C)(O)/C=C\c1ncc(Cl)cc1-c1ccc(S(C)(=O)=O)cc1` [Example 51, 5-Chloro-2-((Z)-3-Hydroxy-3-methyl-1-butenyl)-3-(4-methylsulfonyl)phenylpyridine]: the IC50 at COX-1 [1] (setting [5]) was 0.01 mM; at COX-1 [2] (setting [6]), 0.001 to 0.003 mM; at COX-2 [3], 0.01 µM; at COX-2 [4], 0.0008 mM.
